Target: T1, RORγ (Homo sapiens, UniProt P51449)
T1 construct: expressed in transfected cells; host or cells: 293FT cells (Invitrogen), expression vector pFN26A (Promega)
T1 sequence (P51449 269-508 limits assumed): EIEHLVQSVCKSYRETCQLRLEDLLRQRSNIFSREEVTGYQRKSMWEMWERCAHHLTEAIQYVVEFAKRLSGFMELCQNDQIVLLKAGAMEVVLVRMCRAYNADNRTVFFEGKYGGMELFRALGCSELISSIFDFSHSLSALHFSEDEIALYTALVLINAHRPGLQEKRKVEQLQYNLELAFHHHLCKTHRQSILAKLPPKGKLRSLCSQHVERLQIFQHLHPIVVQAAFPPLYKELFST
Experiment: RORγ GAL4 reporter gene assay (luciferase readout)
Format: cell-based
Conditions: inhibition of RORγ (GAL4-RORγ-LBD) in 293FT cells, luciferase signal; read-out: mean pIC50 (converted)
Experimental: Example inhibitors 1-38 were tested for their ability to inhibit RORγ activity in a RORγ GAL4 reporter gene assay. The assay procedure and results are described below.
A GAL4 one-hybrid reporter system employing luciferase readout was established to determine inhibition of RORγ in 293FT cells. The RORγ ligand-binding domain (LBD) was fused to the yeast GAL4 DNA binding domain (DBD) and placed under the control of the human cytomegalovirus (CMV) immediate early promoter, using expression vector pFN26A (Promega) and standard recombinant DNA cloning methods. To serve as a control in the assay, a similar vector was generated in which the GAL4-DBD was fused to Herpes simplex virus protein 16 (VP16), a constitutive transcriptional activator.
To monitor the inhibitory effect of compounds on RORγ, a transcriptional reporter construct was used. The pGL4.35 vector (Promega) contains nine copies of the GAL4 Upstream Activator Sequence (UAS). This sequence drives the transcription of the luciferase reporter gene luc2P in response to binding of a fusion protein containing the GAL4 DNA binding domain, as for example expressed by the GAL4-RORγ-LBD and GAL4-VP16 expression vectors described above. To allow a GAL4 fusion protein to drive the expression of the luciferase reporter, the pGL4.35 expression vector and the appropriate GAL4 fusion protein expression vector were bulk transfected in the 293FT cells using standard transfection techniques.
The day after transfection, cells were plated into 96 well plates, test compound was added and the plates were incubated overnight. Subsequently, the firefly luciferase activity was quantified using luciferase detection reagent and luminescence readout.
293FT cells (Invitrogen) were transfected with a GAL4 fusion protein expression vector (as described above) and the transcriptional reporter construct (pGL4.35, Promega). 60 μL of TransIT-293 transfection reagent (Mirus Bio) was added drop wise to 1500 μl Opti-MEM I Reduced Serum Medium (Invitrogen) and incubated at RT (RT) for 5 to 20 minutes. 1500 μL of this reagent mixture was added to 5 μg of GAL4 fusion protein expression vector and 5 μg of the transcriptional reporter construct, and incubated at RT for 20 minutes.
To harvest 293FT cells from a T75 flask, first the culture medium was taken off the cells. Subsequently, the cells were washed with Phosphate Buffered Saline (PBS) (Lonza), after which the PBS was removed. To dissociate the cells, 1 ml of TrypLE Express (Invitrogen) was added to the flask, followed by incubation at RT until the cells visually started to detach. Cells were collected in 5 mL of assay medium (DMEM culture medium (Lonza), 10% dialyzed FBS (Invitrogen) and Pen/Strep (Lonza)) to achieve a single cell suspension. 10×10^6 cells were spun down and re-suspended in 10 mL of assay medium. Subsequently, the cell suspension was added to the transfection mix tube, and then transferred as a whole to a T75 flask (Greiner), followed by overnight (16-24 hours) incubation at 37° C. and 5% CO2.
For compound screening, the cells were harvested (as described above) and counted. 13×10^6 cells were spun down, the supernatant was aspirated and the cells were re-suspended in 17.3 mL of assay medium obtaining a cell suspension of 0.75×10^6 cells/mL. 80 μL of cell suspension (60,000 cells) was plated per well into a white, flat bottom, tissue culture treated, 96 well screening plates (Greiner).
Test compounds were diluted, starting from a 10 mM dimethylsulfoxide (DMSO) stock solution, to serial dilutions in DMSO at 500× the final test concentration. Subsequently, these solutions were diluted to 5× the final test concentration in two 10-fold-dilution steps in assay medium. The final DMSO concentration of the 5× test compound solution was 1%. 20 μL of the 5× test compound solution was added to each test well of the 96 well plate previously plated with 80 μl cell suspension, resulting in the final test concentration with 0.2% DMSO. […]

SMILES: Cc1cc(C(O)(c2ccc(C(=O)NCc3ccc(S(=O)(=O)CC4CC4)cc3)cc2)C(C)(C)C)no1 (stereo not drawn) [Example 38, N-[(4-(cyclopropylmethylsulfonyl)phenyl)methyl]-4-[1-hydroxy-2,2-dimethyl-1-(5-methylisoxazol-3-yl)propyl]benzamide]
- IC50: ≤ 100 nM

SMILES: CCC(O)(c1ccc(C(=O)NCc2ccc(S(=O)(=O)CC)cc2)cc1)C(F)(F)F (stereo not drawn) [Example 17, N-[(4-ethylsulfonylphenyl)methyl]-4-[1-hydroxy-1-(trifluoromethyl)propyl]benzamide]
- IC50: < 10000 nM

SMILES: Cc1cc(C(O)(c2ccc(C(=O)NCc3ccc(S(=O)(=O)CC4CC4)cc3)cc2)C(C)C)no1 (stereo not drawn) [Example 36, N-[[4-(cyclopropylmethylsulfonyl)phenyl]methyl]-4-[1-hydroxy-2-methyl-1-(5-methylisoxazol-3-yl)propyl]benzamide]
- IC50: ≤ 100 nM

SMILES: O=C(NCc1ccc(S(=O)(=O)CC2CC2)cc1)c1ccc(C(O)(C(F)(F)F)C(F)(F)F)cc1 [Example 4, N-[[4-(cyclopropylmethylsulfonyl)phenyl]methyl]-4-[2,2,2-trifluoro-1-hydroxy-1-(trifluoromethyl)ethyl]benzamide]
- IC50: ≤ 100 nM

SMILES: C[C@@H](NC(=O)c1ccc(C(O)(C(F)(F)F)C(F)(F)F)cc1)c1ccc(S(=O)(=O)CC2CC2)cc1 [Example 34, N-[(1R)-1-[4-(cyclopropylmethylsulfonyl)phenyl]ethyl]-4-[2,2,2-trifluoro-1-hydroxy-1-(trifluoromethyl)ethyl]benzamide]
- IC50: < 10000 nM

SMILES: O=C(NCc1ccc(S(=O)(=O)CC2CC2)cc1)c1ccc(C(OCc2ccccc2)(C(F)(F)F)C(F)(F)F)cc1 [Example 27, 4-[1-benzyloxy-2,2,2-trifluoro-1-(trifluoromethyl)ethyl]-N-[[4-(cyclopropylmethylsulfonyl)phenyl]methyl]benzamide]
- IC50: ≤ 1000 nM

SMILES: CCCOC(c1ccc(C(=O)NCc2ccc(S(=O)(=O)NC3CC3)cc2)cc1)(C(F)(F)F)C(F)(F)F [Example 32, N-[[4-(cyclopropylsulfamoyl)phenyl]methyl]-4-[2,2,2-trifluoro-1-propoxy-1-(trifluoromethyl)ethyl]benzamide]
- IC50: ≤ 1000 nM

SMILES: C[C@H](NC(=O)c1ccc(C(O)(C(F)(F)F)C(F)(F)F)cc1)c1ccc(S(=O)(=O)CC2CC2)cc1 [Example 35, N-[(1S)-1-[4-(cyclopropylmethylsulfonyl)phenyl]ethyl]-4-[2,2,2-trifluoro-1-hydroxy-1-(trifluoromethyl)ethyl]benzamide]
- IC50: ≤ 1000 nM

SMILES: COC(c1ccc(C(=O)NCc2ccc(S(=O)(=O)NC3CC3)cc2)cc1)(C(F)(F)F)C(F)(F)F [Example 30, N-[[4-(cyclopropylsulfamoyl)phenyl]methyl]-4-[2,2,2-trifluoro-1-methoxy-1-(trifluoromethyl)ethyl]benzamide]
- IC50: ≤ 1000 nM

SMILES: O=C(NCc1ccc(S(=O)(=O)CC2CC2)cc1)c1ccc(C(O)(C2CCCC2)C(F)(F)F)cc1 (stereo not drawn) [Example 12, 4-(1-cyclopentyl-2,2,2-trifluoro-1-hydroxy-ethyl)-N-[[4-(cyclopropylmethylsulfonyl)phenyl]methyl]benzamide]
- IC50: ≤ 100 nM

SMILES: CC(C)OC(c1ccc(C(=O)NCc2ccc(S(=O)(=O)CC3CC3)cc2)cc1)(C(F)(F)F)C(F)(F)F [Example 26, N-[[4-(cyclopropylmethylsulfonyl)phenyl]methyl]-4-[2,2,2-trifluoro-1-isopropoxy-1-(trifluoromethyl)ethyl]benzamide]
- IC50: ≤ 100 nM

SMILES: CCC(O)(c1ccc(C(=O)NCc2ccc(S(=O)(=O)CC3CC3)cc2)cc1)C(F)(F)F (racemic) [(+)-1, (+)-N-[[4-(cyclopropylmethylsulfonyl)phenyl]methyl]-4-[1-hydroxy-1-(trifluoromethyl)propyl]benzamide]
- IC50: ≤ 100 nM

SMILES: CC(O)(c1ccc(C(=O)NCc2ccc(S(=O)(=O)CC3CC3)cc2)cc1)C(F)(F)F (stereo not drawn) [Example 2, N-[[4-(cyclopropylmethylsulfonyl)phenyl]methyl]-4-(2,2,2-trifluoro-1-hydroxy-1-methyl-ethyl)benzamide]
- IC50: ≤ 1000 nM

SMILES: CC(C)CC(O)(c1ccc(C(=O)NCc2ccc(S(=O)(=O)CC3CC3)cc2)cc1)C(F)(F)F (stereo not drawn) [Example 8, N-[[4-(cyclopropylmethylsulfonyl)phenyl]methyl]-4-[1-hydroxy-3-methyl-1-(trifluoromethyl)butyl]benzamide]
- IC50: ≤ 100 nM

SMILES: CC(C)(O)c1ccc(C(=O)NCc2ccc(S(=O)(=O)CC3CC3)cc2)cc1 [Example 3, N-[[4-(cyclopropylmethylsulfonyl)phenyl]methyl]-4-(1-hydroxy-1-methyl-ethyl)benzamide]
- IC50: > 10000 nM

SMILES: COC(c1ccc(C(=O)NCc2ccc(S(=O)(=O)CC3CC3)cc2C)cc1)(C(F)(F)F)C(F)(F)F [Example 28, N-[[4-(cyclopropylmethylsulfonyl)-2-methyl-phenyl]methyl]-4-[2,2,2-trifluoro-1-methoxy-1-(trifluoromethyl)ethyl]benzamide]
- IC50: ≤ 100 nM

SMILES: CC(C)(C)CC(O)(c1ccc(C(=O)NCc2ccc(S(=O)(=O)CC3CC3)cc2)cc1)C(F)(F)F (stereo not drawn) [Example 9, N-[[4-(cyclopropylmethylsulfonyl)phenyl]methyl]-4-[1-hydroxy-3,3-dimethyl-1-(trifluoromethyl)butyl]benzamide]
- IC50: ≤ 100 nM

SMILES: CCCCC(O)(c1ccc(C(=O)NCc2ccc(S(=O)(=O)NC3CC3)cc2)cc1)C(F)(F)F (stereo not drawn) [Example 20, N-[[4-(cyclopropylsulfamoyl)phenyl]methyl]-4-[1-hydroxy-1-(trifluoromethyl)pentyl]benzamide]
- IC50: ≤ 1000 nM

SMILES: O=C(NCc1ccc(S(=O)(=O)CC2CC2)cc1)c1ccc(C(O)(Cc2ccccc2)C(F)(F)F)cc1 (stereo not drawn) [Example 14, 4-(1-benzyl-2,2,2-trifluoro-1-hydroxy-ethyl)-N-[[4-(cyclopropylmethylsulfonyl)phenyl]methyl]benzamide]
- IC50: ≤ 100 nM

SMILES: CCCC(O)(c1ccc(C(=O)NCc2ccc(S(=O)(=O)CC3CC3)cc2)cc1)C(F)(F)F (stereo not drawn) [Example 6, N-[[4-(cyclopropylmethylsulfonyl)phenyl]methyl]-4-[1-hydroxy-1-(trifluoromethyl)butyl]benzamide]
- IC50: ≤ 100 nM

SMILES: CCS(=O)(=O)c1ccc(CNC(=O)c2ccc(C(O)(C(F)(F)F)C(F)(F)F)cc2)cc1 [Example 19, N-[(4-ethylsulfonylphenyl)methyl]-4-[2,2,2-trifluoro-1-hydroxy-1-(trifluoromethyl)ethyl]benzamide]
- IC50: < 10000 nM

SMILES: Cc1cc(C(O)(c2ccc(C(=O)NCc3ccc(S(=O)(=O)CC4CC4)cc3)cc2)C2CC2)no1 (stereo not drawn) [Example 37, 4-[cyclopropyl-hydroxy-(5-methylisoxazol-3-yl)methyl]-N-[[4-(cyclopropylmethylsulfonyl)phenyl]methyl]benzamide]
- IC50: ≤ 1000 nM

SMILES: CCCCC(O)(c1ccc(C(=O)NCc2ccc(S(=O)(=O)CC3CC3)cc2)cc1)C(F)(F)F (stereo not drawn) [Example 7, N-[[4-(cyclopropylmethylsulfonyl)phenyl]methyl]-4-[1-hydroxy-1-(trifluoromethyl)pentyl]benzamide]
- IC50: ≤ 100 nM

SMILES: CCOC(c1ccc(C(=O)NCc2ccc(S(=O)(=O)CC3CC3)cc2)cc1)(C(F)(F)F)C(F)(F)F [Example 23, N-[[4-(cyclopropylmethylsulfonyl)phenyl]methyl]-4-[1-ethoxy-2,2,2-trifluoro-1-(trifluoromethyl)ethyl]benzamide]
- IC50: ≤ 100 nM

— US10556866B2, “ROR gamma (RORγ) modulators” (LEAD PHARMA HOLDING B.V., priority 2015, dated 2020)
